Consider 28 molecules from ChEMBL document CHEMBL1201862, “PubChem BioAssay data set” (2004).

As usually defined, the GI50 is the concentration giving 50% growth inhibition.

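Where inhibition never reached the appropriate level, the endpoint shown equals the highest concentration tested. Otherwise, values were interpolated linearly from a five-concentration, 48-hour dose response in 96-well plates. Here, GI50 denotes the concentration required for 50% inhibition of growth.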 Active and inactive are the calls of the source. No stated cut-off is given here; in the data, active = GI50 up to about 1.1 µM and inactive = higher.

The test system of one experiment is BT-549. As to the kind of experiment: DTP human tumour cell line panel, 48 h.
In the next experiment the test system is Hs-578T. As to the kind of experiment: DTP human tumour cell line panel, 48 h.

As for `O=C(NCCCN(CCCCN(CCCNC(=O)C(F)(F)F)Cc1ccccc1)Cc1ccccc1)C(F)(F)F`, the GI50 with BT-549 is 14.9 µM (inactive); in the experiment on Hs-578T, 16.6 µM (inactive).
As to `COC(=O)CCCC(=O)O`, the GI50 with BT-549 and in the experiment on Hs-578T was > 100 µM (inactive) throughout.
Take `O=C(O)C1CC2(C1)CC(C(=O)O)C2` (configuration not stated): the GI50 in the experiment on BT-549 and in the experiment with Hs-578T was > 100 µM (inactive) throughout.
Take `CC(C)=NNc1snnc1C(N)=O`: the GI50 in the experiment on BT-549 and in the experiment with Hs-578T was > 100 µM (inactive) throughout.
Consider `O=c1cc(NNc2ccc(F)cc2)[nH]c(=O)[nH]1`, for which the results for the GI50 with BT-549 and in the experiment with Hs-578T were 13.6 µM (inactive) and 28.4 µM (inactive), respectively.
On to `O=c1oc2ccc(Cl)cc2cc1-c1cn2ccsc2n1`, for which the results for the GI50 with BT-549 and in the experiment with Hs-578T were 24.1 µM (inactive) and 76.4 µM (inactive), respectively.
As for `O=C(Nc1ccccc1)c1cc2ccccc2c(/N=N\c2cccc([N+](=O)[O-])c2)c1O`, the values for the GI50 in the experiment with BT-549 and in the experiment on Hs-578T were > 100 µM (inactive) and 21.2 µM (inactive), respectively.
Consider `CCCCCn1c(=O)c2c(=O)[nH][nH]c2c2ccccc21`, for which the GI50 in the experiment with BT-549 and in the experiment on Hs-578T was > 100 µM (inactive) in each case.
With `O=c1[nH]nc(-c2ccccc2)c2[nH]c3c4ccccc4ccc3c12`, the GI50 in the experiment on Hs-578T is 1.79 µM (inactive).
For the molecule `CC#CS(=O)(=O)c1ccccc1`, the GI50 was 8.45 µM (inactive) with BT-549 and 17.2 µM (inactive) with Hs-578T.
Consider `CN1C2CCC1CC(=CCOC(c1ccc(F)cc1)c1ccc(F)cc1)C2`, for which the GI50 in the experiment on BT-549 is 16.3 µM (inactive); in the experiment with Hs-578T it was 11.9 µM (inactive).
On to `CCCCn1c2c(n(CCCC)c1=S)-c1c(n(CCCC)c(=S)n1CCCC)S[Se][Se]S2`, for which the GI50 was 4.55 µM (inactive) in the experiment on BT-549 and 5.25 µM (inactive) in the experiment with Hs-578T.
In the case of `CO[P@]1(=O)O[C@@H](c2ccccc2)[C@H](O)[C@@]1(O)c1ccccc1`, the GI50 in the experiment on BT-549 is > 100 µM (inactive).
As to `CCc1n[nH]c(=O)n1/N=C/c1ccc(/C=N/n2c(CC)n[nH]c2=O)cc1`, the GI50 in the experiment on BT-549 and in the experiment with Hs-578T was > 100 µM (inactive) in each case.
Turning to `CC1=C[C@H](O)[C@@]2(C)[C@@H]([C@@H]1C)[C@H]1CC[C@@H]3[C@@]4(C)CC[C@H](O)C(C)(C)[C@@H]4CC[C@@]3(C)[C@]1(C)C[C@@H]2O`, the GI50 is 23.9 µM (inactive) with BT-549 and 22.3 µM (inactive) in the experiment on Hs-578T.
For `COc1cc([C@@H]2c3cc4c(cc3[C@H](OC3OC5COC(c6ccco6)OC5C(O)C3O)C3COC(=O)[C@@H]32)OCO4)cc(OC)c1OC` (some centres not stated), the results for the GI50 in the experiment with BT-549 and with Hs-578T were 3.21 µM (inactive) and 5.01 µM (inactive), respectively.
The matching figures for `OC1c2ccccc2[C@@H]2[C@H]1[C@@H](c1ccccc1)C1(Cc3ccccc3C1O)[C@H]2c1ccccc1` (some centres not stated): 14.7 µM (inactive) and 6.93 µM (inactive).
Take `O=C1C=Cc2c1csc2Br`: the GI50 with BT-549 was 27.4 µM (inactive); in the experiment on Hs-578T, 41.2 µM (inactive).
In the case of `CCOC(=O)/C(C#N)=C/c1ccc(SCc2ccco2)c([N+](=O)[O-])c1`, the GI50 in the experiment with BT-549 and in the experiment on Hs-578T was > 100 µM (inactive) each time.
With `O=C1Oc2ccccc2C(=O)/C1=C\Nc1nc(-c2ccc(O)c(O)c2)cs1`, the GI50 in the experiment with BT-549 was 5.77 µM (inactive); with Hs-578T, 15.3 µM (inactive).
The like results for `O=[N+]([O-])c1cc(Cl)cnc1Br` were, in that order, 3.18 µM (inactive) and 7.16 µM (inactive).
Turning to `CCOC(=O)c1c(SC(=O)c2ccc(OC)cc2)n(-c2ccccc2)c(=S)n(-c2ccccc2)c1=O`, the GI50 in the experiment with Hs-578T was 45.4 µM (inactive).
Consider `CCOC(=O)NC(C(=O)OCC)C(F)(F)F` (configuration not stated), for which the GI50 in the experiment on Hs-578T is > 100 µM (inactive).
Regarding `C1C2CC3CC1CC(c1nn4c(C56CC7CC(CC(C7)C5)C6)nnc4s1)(C2)C3`, the GI50 in the experiment with Hs-578T was > 100 µM (inactive).
With `COc1cccc(N(CN2C(=O)CCC2C(=O)O)C(C)=O)c1` (configuration not stated), the GI50 in the experiment with Hs-578T was > 100 µM (inactive).
As for `COI1NC(=O)c2ccccc21`, the GI50 with Hs-578T is > 100 µM (inactive).
The same measure, in the same setting: for `COc1ccc(Cc2c(-c3ccc(C)cc3)n[nH]c(=O)c2C2C(=O)N(c3ccccc3)N=C2c2ccccc2)cc1` (configuration not stated) the value was 31.6 µM (inactive).
With `COC(=O)C1=CC(=O)OC1(OO)c1ccc(Br)cc1` (configuration not stated), in the experiment with BT-549, the GI50 was > 100 µM (inactive).
